Test [1] relates to Q7 cells (ST HDH Q7/7; immortalized mouse striatal cells). As to the kind of experiment: 384-Well Cell Titer Glo (CTG) Q7 Cystine Deprivation Survival Assay. It is filed as cell-based. The settings on record: read-out: Q7 Cystine Free CTG 384 CSA (EC50). Here is the method: (§1) In neuronal cells excess extracellular glutamate inhibits the cystine/glutamate antiporter leading to intracellular cysteine depletion, GSH depletion, ROS production and cell death, a phenomenon termed oxidative glutamate toxicity or oxytosis. Q7 cells (ST HDH Q7/7; immortalized mouse striatal cells) challenged with cystine-free media recapitulate this phenotype. An initial screen was performed to identify compounds effective in rescuing Q7 cells from death resulting from cystine deprivation. This method is further described in Yonezawa et al., J. Neurochem 67, 566-573 (1996), and Li et al., J Neurosci., 23, 5816-5826 (2003).
(§2) DMEM (Catalog no. 11995-040), DMEM without Cystine (Catalog no. 21013-024), PBS (Phosphate buffered saline), Penicillin-streptomycin mix, L-Glutamine and Pyruvate were purchased from Gibco. Fetal Bovine Serum was obtained from Mediatech, Inc. Mouse striatum derived ST HDH Q7/7 (Q7) cells were obtained from Dr. M. MacDonald (Massachusetts General Hospital). Methionine and Vitamin K2 were purchased from Sigma Aldrich. Cell Titer Glo 2.0 was purchased from Promega. Geneticin (G418) Sulfate was purchased from Santa Cruz Biotechnology. Cell culture medium (Growth medium) was made by combining 50 mL Fetal Bovine Serum, 100 U/mL penicillin, 100 microgram/mL streptomycin and 400 microgram/mL Geneticin (G418) Sulfate; DMEM was added to make the volume up to 500 mL. Assay medium (without Cystine) was made by combining 50 mL Fetal Bovine Serum, 100 U/mL penicillin, 100 microgram/mL streptomycin, 4 mM L-Glutamine, 1 mM Pyruvate and 30 mg/L Methionine; DMEM without Cystine was added to make the volume up to 500 mL. During the course of the experiments, these solutions were stored at 4° C. The cells were grown in 10-cm diameter tissue culture-treated dishes. Every fourth day, the cells were subcultured by trypsinization and re-seeding at a cell density of 500,000 cells per dish.
(§3) Test samples were supplied in 1.5 mL glass vials. The compounds were diluted with an appropriate volume of DMSO to result in a 1 mM stock solution. Once dissolved, they were stored at −20° C.
Test Samples were Screened According to the Following Protocol:
Q7 cells were cultured routinely as described herein. For 384-well cell survival assays, cells were seeded in clear bottom, black wall 384-well tissue culture-treated polystyrene plates by resuspending a cell suspension at a density of 50,000 cells/mL in growth medium, then dispensing 60 microliters of cell suspension per well using either an electronic multichannel pipette or a Multidrop™ Combi Reagent Dispenser (ThermoFisher Scientific), corresponding to 3,000 cells/well. The cell-containing plates were incubated 5 hours at 33° C. in an atmosphere with 95% humidity and 5% CO2 to allow attachment of the cells to the culture plate.
5 hours after cell seeding into the 384-well assay plate, the cell culture medium was replaced by washing 2 times with 70 microliters/well PBS (without Ca^++ and Mg^++) using a BioTek ELx405 plate washer. After the final aspiration, 60 microliters/well of assay medium (without cystine) was added using the Multidrop Combi Reagent Dispenser. Within 45 minutes, test compounds were then added to varying final concentrations using the Tecan D300e Digital Dispenser, with subsequent back-filling with DMSO diluent to a final concentration of 0.3% (v/v).
After medium change to cystine-free medium and compound addition, cell plates were incubated at 33° C. in an atmosphere of 5% CO2 and 95% humidity. 18 hours later, the plates were equilibrated to room temperature for 15 minutes. Then, 10 microliters/well of room temperature Cell Titer Glo 2.0 reagent was added using the Multidrop Combi Reagent Dispenser. After 15 minutes of incubation at room temperature, the luminescence (100 ms integration time) per well was determined using the BioTek Synergy plate reader. Data was imported into Microsoft Excel. […]
(ATP-based viability assays read luminescence as a measure of living cells.)

Test [2] shares this test system. Put plainly: Q7 cystine deprivation cell survival assay (96-well, Calcein AM). It is filed as cell-based. Conditions: for EC50: Mus musculus, rescue of Q7 cells from cystine deprivation, 18 hours, Calcein AM fluorescence, 96-well. The procedure: as §1
as §2, with “21013-024),” for “21013-024), PBS (Phosphate buffered saline),”, “Calcein AM” for “Cell Titer Glo 2.0”, “Anaspec.” for “Promega.”
as §3
Test samples were screened according to the following protocol:
Q7 cells were cultured routinely as described herein. For cell survival assays, cells were seeded in clear 96-well tissue culture-treated polystyrene plates by resuspending a cell suspension at a density of 100,000 cells/mL in growth medium, then dispensing 100 microliters of cell suspension per well using an electronic multichannel pipette, corresponding to 10,000 cells/well. The cell-containing plates were incubated 5 hours at 33° C. in an atmosphere with 95% humidity and 5% CO2 to allow attachment of the cells to the culture plate.
Test compounds were thawed, and 2 microliters of a 1 mM stock solution was diluted in a microtiter plate well containing 98 microliters of 10% DMSO in H2O, resulting in a 20 micromolar master solution. Serial dilutions from the master solution were made in 10% DMSO. The period between the single dilution steps was kept as short as possible (generally less than 30 seconds). 5 hours after cell seeding into the 96-well assay plate, the cell culture medium was removed by inverting the plates and gently patted onto paper towel. The plates were washed once with 100 microliters of PBS containing Ca^++ and Mg^++. PBS containing Ca^++ and Mg^++ were removed by inverting the plates and gently patted onto a paper towel. After washing the wells, 100 microliters of assay medium without Cystine was dispensed and then treated with 10 microliters of the various compound dilutions in triplicates. Final concentration of DMSO in the well was 1%.
After medium change to cystine-free medium and compound addition, cell plates were incubated at 33° C. in an atmosphere of 5% CO2 and 95% humidity. 18 hours later, the medium from all plates was removed by inverting the plates and gently tapping the plate onto a paper towel. […]

[3] abbreviates: rescue of Q7 cells from cystine deprivation, 18 hours, Cell Titer Glo luminescence, 384-well.

This is an account of results in patent publication US10703701B2, “Fluoroalkyl, fluoroalkoxy, phenoxy, heteroaryloxy, alkoxy, and amine 1,4-benzoquinone derivatives for treatment of oxidative stress disorders” (PTC Therapeutics, Inc., priority 2015, dated 2020).

As for `COCCCCCCCCCCC1=C(C)C(=O)C(C)=C(C)C1=O` [Example 6, 2-(10-methoxydecyl)-3,5,6-trimethylcyclohexa-2,5-diene-1,4-dione], the EC50 – broadly, the concentration giving half of the maximal effect – in test [1] (setting [3]) was below 0.1 µM; in test [2] it was 0.5 to 1 µM.
Turning to `CC1=C(C)C(=O)C(CCCCCCCCCCN(C)CC(C)C)=C(C)C1=O` [Example 20, 2-(10-(isobutyl(methyl)amino)decyl)-3,5,6-trimethylcyclohexa-2,5-diene-1,4-dione], the EC50 in test [1] (setting [3]) was below 0.1 µM.
As for `CCOCCCCCCCCCCC1=C(C)C(=O)C(C)=C(C)C1=O` [Example 16, 2-(10-ethoxydecyl)-3,5,6-trimethylcyclohexa-2,5-diene-1,4-dione], the 50% effective concentration (EC50) in test [1] (setting [3]) was below 0.1 µM.
For `CCCOCCCCCCCCCCC1=C(C)C(=O)C(C)=C(C)C1=O` [Example 12, 2,3,5-trimethyl-6-(10-propoxydecyl)cyclohexa-2,5-diene-1,4-dione], the EC50 in test [1] (18 h) is below 0.1 µM.
The same measure, in the same setting: under `CC1=C(C)C(=O)C(CCCCCCCCOc2cccnc2C)=C(C)C1=O` [Example 19, 2,3,5-trimethyl-6-(8-((2-methylpyridin-3-yl)oxy)octyl)cyclohexa-2,5-diene-1,4-dione] stands 0.1 to 0.5 µM; under `CC1=C(C)C(=O)C(CCCCCCCCCCOC(C)C)=C(C)C1=O` [Example 9, 2-(10-isopropoxydecyl)-3,5,6-trimethylcyclohexa-2,5-diene-1,4-dione], below 0.1 µM; under `CCOCCCCCCCCC1=C(C)C(=O)C(C)=C(C)C1=O` [Example 10, 2-(8-ethoxyoctyl)-3,5,6-trimethylcyclohexa-2,5-diene-1,4-dione], below 0.1 µM.
Turning to `COCCCCCCCCC1=C(C)C(=O)C(C)=C(C)C1=O` [Example 3, 2-(8-methoxyoctyl)-3,5,6-trimethylcyclohexa-2,5-diene-1,4-dione], the EC50 in test [1] (setting [3]) was 0.1 to 0.5 µM; in test [2] it was 0.5 to 1 µM.
For the molecule `CC1=C(C)C(=O)C(CCCCCCCCCCOCC(C)C)=C(C)C1=O` [Example 11, 2-(10-isobutoxydecyl)-3,5,6-trimethylcyclohexa-2,5-diene-1,4-dione], the concentration giving a half-maximal response (EC50) in test [1] (18 h) is below 0.1 µM.
As for `CC1=C(C)C(=O)C(CCCCCCCCCCN2CCCC2)=C(C)C1=O` [Example 21, 2,3,5-trimethyl-6-(10-(pyrrolidin-1-yl)decyl)cyclohexa-2,5-diene-1,4-dione], in test [1] (setting [3]), the concentration for a half-maximal effect (EC50) is below 0.1 µM.
On to `CC1=C(C)C(=O)C(CCCCCCCCCCOc2ccccc2)=C(C)C1=O` [Example 13, 2,3,5-trimethyl-6-(10-phenoxydecyl)cyclohexa-2,5-diene-1,4-dione], for which, in test [1] (18 h), the EC50 was below 0.1 µM.
`CC1=C(C)C(=O)C(CCCCCCCCCCC(F)(F)F)=C(C)C1=O` [Example 4, 2,3,5-trimethyl-6-(11,11,11-trifluoroundecyl)cyclohexa-2,5-diene-1,4-dione]: the EC50 in test [1] (setting [3]) was below 0.1 µM; in test [2] it was below 0.5 µM.
As for `CC1=C(C)C(=O)C(CCCCCCCCOCC(C)C)=C(C)C1=O` [Example 18, 2-(8-isobutoxyoctyl)-3,5,6-trimethylcyclohexa-2,5-diene-1,4-dione], the EC50 in test [1] (18 h) was below 0.1 µM.
For `CCCOCCCCCCCCC1=C(C)C(=O)C(C)=C(C)C1=O` [Example 17, 2,3,5-trimethyl-6-(8-propoxyoctyl)cyclohexa-2,5-diene-1,4-dione], the EC50 in test [1] (setting [3]) is below 0.1 µM.
In the case of `CC(C)=CCC/C(C)=C/CC/C(C)=C/CC/C(C)=C/CC1=C(C)C(=O)c2ccccc2C1=O` [Vitamin K2, reference compound], in test [2] (1 micromolar, defined as 100% relative viability), the “rescue of cystine deprivation-induced reduction in cell viability” value is listed as “completely rescued”.
`CC1=C(C)C(=O)C(CCCCCCCCC(F)(F)F)=C(C)C1=O` [Example 2, 2,3,5-trimethyl-6-(9,9,9-trifluorononyl)cyclohexa-2,5-diene-1,4-dione]: the EC50 is 0.1 to 0.5 µM in test [1] (setting [3]) and 0.5 to 1 µM in test [2].
With `CC1=C(C)C(=O)C(CCCCCCCCOC(C)C)=C(C)C1=O` [Example 14, 2-(8-isopropoxyoctyl)-3,5,6-trimethylcyclohexa-2,5-diene-1,4-dione], the concentration for a half-maximal effect (EC50) in test [1] (18 h) is below 0.1 µM.
In the case of `CC1=C(C)C(=O)C(NS(C)(=O)=O)=C(CCCCCCCCCCC(F)(F)F)C1=O` [Example 8, N-(4,5-dimethyl-3,6-dioxo-2-(11,11,11-trifluoroundecyl)cyclohexa-1,4-dien-1-yl)methanesulfonamide], in test [1] (setting [3]), the half-maximal effective concentration (EC50) is below 0.1 µM.
`CC1=C(C)C(=O)C(CCCCCCCCCCNCC(C)C)=C(C)C1=O` [Example 22, 2-(10-(isobutylamino)decyl)-3,5,6-trimethylcyclohexa-2,5-diene-1,4-dione]: the EC50 in test [1] (18 h) was below 0.1 µM.
For `CC1=C(C)C(=O)C(CCCCCCCCOCC(F)(F)F)=C(C)C1=O` [Example 1, 2,3,5-trimethyl-6-(8-(2,2,2-trifluoroethoxy)octyl)cyclohexa-2,5-diene-1,4-dione], the 50% effective concentration (EC50) in test [1] (setting [3]) is 0.1 to 0.5 µM; in test [2], 0.5 to 1 µM.
For `CC1=C(C)C(=O)C(C(C)C)=C(CCCCCCCCCCC(F)(F)F)C1=O` [Example 7, 2-isopropyl-5,6-dimethyl-3-(11,11,11-trifluoroundecyl)cyclohexa-2,5-diene-1,4-dione] the same measures were 0.1 to 0.5 µM and below 0.5 µM.
Consider `COCCCCCCC1=C(C)C(=O)C(C)=C(C)C1=O` [Example 15, 2-(6-methoxyhexyl)-3,5,6-trimethylcyclohexa-2,5-diene-1,4-dione], for which the concentration for a half-maximal effect (EC50) in test [1] (18 h) lay within 0.1 to 0.5 µM.
Consider `CC1=C(C)C(=O)C(CCCCCCCCCCOCC(F)(F)F)=C(C)C1=O` [Example 5, 2,3,5-trimethyl-6-(10-(2,2,2-trifluoroethoxy)decyl)cyclohexa-2,5-diene-1,4-dione], for which the EC50 in test [1] (setting [3]) was below 0.1 µM; in test [2], below 0.5 µM.
